In patent US20110034531A1, “USE OF HDAC INHIBITORS FOR THE TREATMENT OF MELANOMA” (NOVARTIS AG, priority 2007, published 2011):

Key:
A375 = experiment: Monolayer growth inhibition assay (MTT/MTS), A375; format: cell-based; conditions: A375 melanoma cell line, treated for 3 days
Text: (§1) The MTT is a colorimetric assay to determine the cell proliferation rate. The yellow tetrazolium MTT (3-(4,5-dimethylthiazolyl-2)-2,5-diphenyltetrazolium bromide) is reduced by metabolically active cells, in part by the action of dehydrogenase enzymes, to generate reducing equivalents, such as NADH and NADPH. The resulting intracellular purple formazan can be solubilized and quantified by spectrophotometric means. The signals produced is directly proportional to the cell numbers. Describing the MTT assay in detail, experiments were done using six-point or nine-point drug titrations in multi-well tissue culture dishes, with outer rows left empty. Cells were suspended in complete media at densities of between 10^3 and 10^4 cell/mL, respectively, and added per well. The appropriate medium (200 μL) was then added. […] This plate was incubated at 37° C. for 4 hours and the optical density was measured on a Molecular Devices Thermomax at 490 nm using the Softmax program. […]
(§2) Compound addition began 24 hours after seeding, the same time as the T0 determination. […] The MTS solution was added (as for the To plate) and read 4 hours later. […]
(§3) A panel of Melanoma cell lines were treated with DMSO vehicle control or varying concentrations of LBH589 for 3 days. Cell proliferation was measured on the day of cell plating and on the third day post-treatment. IC50 and LD50 values were calculated as described above.

A2058 = experiment: Monolayer growth inhibition assay (MTT/MTS), A2058; format: cell-based; conditions: A2058 melanoma cell line, treated for 3 days
Text: as §1, §2, §3

SK-MEL-28 = experiment: Monolayer growth inhibition assay (MTT/MTS), SK-MEL-28; format: cell-based; conditions: SK-MEL-28 melanoma cell line, treated for 3 days
Text: as §1, §2, §3

WM-266-4 = experiment: Monolayer growth inhibition assay (MTT/MTS), WM-266-4; format: cell-based; conditions: WM-266-4 melanoma cell line, treated for 3 days
Text: as §1, §2, §3

RPMI-7951 = experiment: Monolayer growth inhibition assay (MTT/MTS), RPMI-7951; format: cell-based; conditions: RPMI-7951 melanoma cell line, treated for 3 days
Text: as §1, §2, §3

SK-MEL-5 = experiment: Monolayer growth inhibition assay (MTT/MTS), SK-MEL-5; format: cell-based; conditions: SK-MEL-5 melanoma cell line, treated for 3 days
Text: as §1, §2, §3

MeWo = experiment: Monolayer growth inhibition assay (MTT/MTS), MeWo; format: cell-based; conditions: MeWo melanoma cell line, treated for 3 days
Text: as §1, §2, §3

G-361 = experiment: Monolayer growth inhibition assay (MTT/MTS), G-361; format: cell-based; conditions: G-361 melanoma cell line, treated for 3 days
Text: as §1, §2, §3

[1] = test system: panel of Melanoma cell lines
Text: as §1, §2, §3

[2] = concentration reducing cell number to 50% of original inoculum
[3] = Homo sapiens, 72 h, read-out: IC50 [nM] Measure of Cell Growth Inhibition

Cc1[nH]c2ccccc2c1CCNCc1ccc(/C=C/C(=O)NO)cc1 [LBH589, N-hydroxy-3-[4-[[[2-(2-methyl-1H-indol-3-yl)-ethyl]-amino]methyl]phenyl]-2E-2-propenamide]
LD50 (nM) Measure of Cell Kill (A375; [2]): 77.83 nM | IC50 (A375; Homo sapiens, A-375, 72 h, read-out: IC50 [nM] Measure of Cell Growth Inhibition): 32.7 nM | LD50 (nM) Measure of Cell Kill (A2058; [2]): 58.96 nM | IC50 (A2058; [3]): 17.8 nM | IC50 (SK-MEL-28; [3]): 43.1 nM | LD50 (nM) Measure of Cell Kill (SK-MEL-28; [2]): 129.33 nM | IC50 (WM-266-4; [3]): 26.4 nM | LD50 (nM) Measure of Cell Kill (WM-266-4; [2]): 73.05 nM | IC50 (RPMI-7951; [3]): 27.6 nM | LD50 (nM) Measure of Cell Kill (RPMI-7951; [2]): 71.63 nM | IC50 (SK-MEL-5; [3]): 6.15 nM | LD50 (nM) Measure of Cell Kill (SK-MEL-5; [2]): 54.95 nM | IC50 (MeWo; [3]): 34.5 nM | LD50 (nM) Measure of Cell Kill (MeWo; [2]): 157.64 nM | LD50 (nM) Measure of Cell Kill (G-361; [2]): 51.44 nM | IC50 (G-361; [3]): 8.09 nM | LD50, cytotoxic effect ([1]; 3 days): < 160 nM | IC50 values, anti-proliferative effect ([1]; all 8 melanoma cell lines examined, treated for 3 days): low nanomolar
